Measurements taken from US20240262795A1, “PYRAZINE COMPOUNDS AS INHIBITORS OF FLT3” (Biomea Fusion, Inc., priority 2021, published 2024).

Key:
Assay type in all cases: cell-based, human
K-562 = assay: Proliferation inhibition, CellTiter-Glo, K-562; conditions: Homo sapiens, K562, 96 h; K-562 cells, IC50 (4 days), CellTiter-Glo; read-out: K-562 IC50
Source text: (§1) The proliferation inhibitory effect was investigated in human AML cell lines MOLM-13 (AddexBio: C0003003) and MV-4-11 (ATCC: CRL-9591), and CML cell line […] (ATCC: CRL-3343). Molm-13 is heterozygous for FLT3-ITD mutation, while MV4-11 is homozygous for FLT3-ITD (Quentmeier H, et al., Leukemia. 17(1):120-4). […] Cells were maintained in RPMI-1640 medium (ThermoFisher catalog no. 61870036) supplemented with 10% of Heat Inactivated FBS (ThermoFisher catalog no. A31605) and 1% Pen-Strep (ThermoFisher catalog no. 10378016) and cultured at 37° C. in a humidified incubator with 5% CO2. Cell lines were grown by […], and the cells were maintained in a range 70%-80% confluency.
(§2) ATP is present in all metabolically active cells and is considered as a marker for cell viability and proliferation. Metabolic cell activity was determined using the CellTiter-Glo kit (Promega catalog no. G7572), an ATP monitoring system based on the production of luminescence by the reaction of ATP with added UltraGlo® recombinant luciferase (Kawano et al., 2016, PLOS One, 8; 11(7):e0158888), according to the supplier's experimental recommendations. The assay was based on a 96 well plate format.
(§3) Test compounds were dissolved at 10 mM in DMSO (Sigma catalog no. D8418; purity≥99.9%) and stored at −20° C. Eight concentrations of test compound were assessed in duplicate in an individual test occasion in parallel in the selected cell lines. Gilteratinib and FF-10101 were used as reference compounds and tested in duplicate at eight concentrations. 100% of proliferation is represented by the untreated cells (0.2% DMSO).
(§4) On the day of the experiment, cells were quantified with the cell viability analyzer NucleoCounter (Chemometec NC-200) and diluted with fresh medium to obtain the cell density of about 10,000 cells per 200 μL medium. 200 μL of cell suspension were added into wells in the 96 well plate.
(§5) After 2 hours from seeding cells, compounds at desired concentrations were added using a D300e compound dispenser (Life Sciences Tecan D300) with shaking between each compound dispensed. Assay plates were incubated at 37° C. in a humidified incubator with 5% CO2.
(§6) On day 4 (˜96 hrs after compound addition) assay plates were equilibrated at room temperature for approximately 15 min, and then 40 μL/well of the Promega CellTiterGlo® reagent was added. Contents were mixed for 5 min on an orbital shaker to promote cell lysis, and then incubated at room temperature for an additional 10 min in the dark to stabilize the luminescent signal. Luminescence was read by using a GloMlax GM300 plate reader (Promega) using the luminescence for 96 well plate standard protocol.
(§7) Results were analyzed by GraphPad (Prism) and IC50 values were calculated by non-linear regression using four parameter-logistic equation.

MOLM-13 = assay: Proliferation inhibition, CellTiter-Glo, MOLM-13; conditions: Homo sapiens, 96 h; MOLM-13 cells, IC50 (4 days), CellTiter-Glo; read-out: MOLM-13 IC50
Source text: as §1, §2, §3, §4, §5, §6, §7

MV-4-11 = assay: Proliferation inhibition, CellTiter-Glo, MV-4-11; conditions: Homo sapiens, MV4-11, 96 h; MV-4:11 cells, IC50 (4 days), CellTiter-Glo; read-out: MV-4:11 IC50
Source text: as §1, §2, §3, §4, §5, §6, §7

Compound	IC50 (K-562) [nM]	IC50 (MOLM-13) [nM]	IC50 (MV-4-11) [nM]
C=C(F)C(=O)N(C)[C@@H](C)C(=O)NCCc1cccc(Nc2nc(C3CC3)c(CC)nc2C(N)=O)c1 [Compound 215, 5-cyclopropyl-6-ethyl-3-[3-[2-[[(2S)-2-[2-fluoroprop-2-enoyl(methyl)amino]propanoyl]amino]ethyl]anilino]pyrazine-2-carboxamide]	> 500	> 500	> 500
CCc1nc(C(N)=O)c(Nc2cccc(C[C@@H](C)NC(=O)CN(C)C(=O)/C=C/CN(C)C)c2)nc1C [Compound 311, 3-[3-[(2R)-2-[[2-[[(E)-4-(dimethylamino)but-2-enoyl]-methyl-amino]acetyl]amino]propyl]anilino]-6-ethyl-5-methyl-pyrazine-2-carboxamide]	> 500	100 to 500	10 to 100
CC#CC(=O)N(C)[C@@H](C)C(=O)NCCc1cccc(Nc2nc(N(C)C)c(CC)nc2C(N)=O)c1 [Compound 160, 3-[3-[2-[[(2S)-2-[but-2-ynoyl(methyl)amino]propanoyl]amino]ethyl]anilino]-5-(dimethylamino)-6-ethyl-pyrazine-2-carboxamide]	> 500	10 to 100	1 to 10
Cc1cc(C(N)=O)c(Nc2cccc(CCNC(=O)[C@H](C)N(C)C(=O)/C=C/CN(C)C)c2)nc1C1CC1 [Compound 319, 6-cyclopropyl-2-[3-[2-[[(2S)-2-[[(E)-4-(dimethylamino)but-2-enoyl]-methyl-amino]propanoyl]amino]ethyl]anilino]-5-methyl-pyridine-3-carboxamide]	> 500	10 to 100	10 to 100
CCc1nc(C(N)=O)c(Nc2cccc([C@@H](C)CNC(=O)[C@H](C)N(C)C(=O)/C=C/CN(C)C)c2)nc1C [Compound 326, 3-((3-((R)-1-((S)-2-((E)-4-(dimethylamino)-N-methylbut-2-enamido)propanamido)propan-2-yl)phenyl)amino)-6-ethyl-5-methylpyrazine-2-carboxamide]	> 500	> 500	> 500
Cc1nc(C(N)=O)c(Nc2cccc(CCNC(=O)[C@H](C)N(C)C(=O)/C=C/CN3CCC3)c2)nc1N(C)C [Compound 230, (S,E)-3-((3-(2-(2-(4-(azetidin-1-yl)-N-methylbut-2-enamido)propanamido)ethyl)phenyl)amino)-5-(dimethylamino)-6-methylpyrazine-2-carboxamide]	> 500	1 to 10	< 1
CCc1nc(C(N)=O)c(Nc2cccc(CCNC(=O)[C@H](C)N(C)C(=O)/C(F)=C/CN(C)C)c2)nc1N(C)C [Compound 162, (S,Z)-5-(dimethylamino)-3-((3-(2-(2-(4-(dimethylamino)-2-fluoro-N-methylbut-2-enamido)propanamido)ethyl)phenyl)amino)-6-ethylpyrazine-2-carboxamide]	> 500	100 to 500	10 to 100
Cc1nc(Nc2cc(F)cc(CCNC(=O)[C@H](C)N(C)C(=O)/C=C/CN(C)C)c2)c(C(N)=O)nc1C [Compound 245, 3-[3-[2-[[(2S)-2-[[(E)-4-(dimethylamino)but-2-enoyl]-methyl-amino]propanoyl]amino]ethyl]-5-fluoro-anilino]-5,6-dimethyl-pyrazine-2-carboxamide]	> 500	10 to 100	1 to 10
CCc1nc(C(N)=O)c(Nc2cccc([C@H](C)CNC(=O)[C@H](C)N(C)C(=O)/C=C/CN(C)C)c2)nc1C [Compound 325, 3-[3-[(1S)-2-[[(2S)-2-[[(E)-4-(dimethylamino)but-2-enoyl]-methyl-amino]propanoyl]amino]-1-methyl-ethyl]anilino]-6-ethyl-5-methyl-pyrazine-2-carboxamide]	> 500	100 to 500	100 to 500
CCc1cc(C(N)=O)c(Nc2cccc(CCNC(=O)[C@H](C)N(C)C(=O)/C=C/CN(C)C)c2)nc1C1CC1 [Compound 316, 6-cyclopropyl-2-[3-[2-[[(2S)-2-[[(E)-4-(dimethylamino)but-2-enoyl]-methyl-amino]propanoyl]amino]ethyl]anilino]-5-ethyl-pyridine-3-carboxamide]	> 500	100 to 500	10 to 100
CC#CC(=O)N(C)[C@@H](C)C(=O)NCCc1cccc(Nc2nc(N(C)C)c(C)nc2C(N)=O)c1 [Compound 217, 3-[3-[2-[[(2S)-2-[but-2-ynoyl(methyl)amino]propanoyl]amino]ethyl]anilino]-5-(dimethylamino)-6-methyl-pyrazine-2-carboxamide]	> 500	10 to 100	10 to 100
CCc1cc(C(N)=O)c(Nc2cccc(CCNC(=O)[C@H](C)N(C)C(=O)/C=C/CN(C)C)c2)nc1N(C)C [Compound 322, (S,E)-6-(dimethylamino)-2-((3-(2-(2-(4-(dimethylamino)-N-methylbut-2-enamido)propanamido)ethyl)phenyl)amino)-5-ethylnicotinamide]	> 500	100 to 500	10 to 100
[2H]C([2H])([2H])N(C/C=C/C(=O)N(C)[C@@H](C)C(=O)NCCc1cccc(Nc2nc(N(C)CC)c(CC)nc2C(N)=O)c1)C([2H])([2H])[2H] [Compound 246, (S,E)-3-((3-(2-(2-(4-(bis(methyl-d3)amino)-N-methylbut-2-enamido)propanamido)ethyl)phenyl)amino)-6-ethyl-5-(ethyl(methyl)amino)pyrazine-2-carboxamide]	> 500	< 1	< 1
Cc1nc(C(N)=O)c(Nc2cccc(CCNC(=O)[C@H](C)N(C)C(=O)/C=C/CN(C)C)c2)nc1N(C)C [Compound 233, (S,E)-5-(dimethylamino)-3-((3-(2-(2-(4-(dimethylamino)-N-methylbut-2-enamido)propanamido)ethyl)phenyl)amino)-6-methylpyrazine-2-carboxamide]	> 500	1 to 10	< 1
[2H]C([2H])([2H])N(C/C=C/C(=O)N(C)[C@@H](C)C(=O)NCCc1cccc(Nc2nc(C)c(CC)nc2C(N)=O)c1)C([2H])([2H])[2H] [Compound 164, 3-[3-[2-[[(2S)-2-[[(E)-4-[bis(trideuteriomethyl)amino]but-2-enoyl]-methyl-amino]propanoyl]amino]ethyl]anilino]-6-ethyl-5-methyl-pyrazine-2-carboxamide]	> 500	10 to 100	1 to 10
Cc1nc(C(N)=O)c(Nc2cccc(CCNC(=O)[C@H](C)N(C)C(=O)/C=C/CN(C)C)c2)nc1C1CC1 [Compound 228, (S,E)-5-cyclopropyl-3-((3-(2-(2-(4-(dimethylamino)-N-methylbut-2-enamido)propanamido)ethyl)phenyl)amino)-6-methylpyrazine-2-carboxamide]	> 500	1 to 10	1 to 10
CCc1nc(Nc2cccc(CCNC(=O)[C@H](C)N(C)C(=O)/C=C/CN(C)C)c2)c(C(N)=O)nc1CC [Compound 243, (S,E)-3-((3-(2-(2-(4-(dimethylamino)-N-methylbut-2-enamido)propanamido)ethyl)phenyl)amino)-5,6-diethylpyrazine-2-carboxamide]	> 500	1 to 10	< 1
CCc1nc(C(N)=O)c(Nc2cccc(CCNC(=O)CN(C)C(=O)/C=C/CN(C)C)c2)nc1C [Compound 226, (E)-3-((3-(2-(2-(4-(dimethylamino)-N-methylbut-2-enamido)acetamido)ethyl)phenyl)amino)-6-ethyl-5-methylpyrazine-2-carboxamide]	> 500	1 to 10	< 1
CCc1nc(C(N)=O)c(Nc2cccc(C[C@H](C)NC(=O)[C@H](C)N(C)C(=O)/C=C/CN(C)C)c2)nc1C [Compound 317, 3-[3-[(2S)-2-[[(2S)-2-[[(E)-4-(dimethylamino)but-2-enoyl]-methyl-amino]propanoyl]amino]propyl]anilino]-6-ethyl-5-methyl-pyrazine-2-carboxamide]	> 500	10 to 100	1 to 10
